Assay results from US12258360B2, “Compositions and methods for treatment of anticancer-drug resistant cancers” (THE GEORGE WASHINGTON UNIVERSITY, priority 2020, dated 2025).

Test system: IGROV1 CR cells
Assay: SRB cell viability, synergy with cisplatin (combination index)
Assay type: cell-based, human
Description: Given that And-1 phosphorylation was positively correlated with cisplatin resistance in OC according the Examples above, it was next determined whether And-1 phosphorylation contributes to cell survival in response to cisplatin. The cell viability to cisplatin in IGROV1, OV90 and mice ID80 cells overexpressed with FLAG-And-1-WT, FLAG-And-1-T826A and phosphomimetic FLAG-And-1-T826E was examined. In brief, cells were seeded in 96-well plate at a density of 3,000-5,000 cells per well and treated with indicated reagents for different concentration. Three days after treatment, the cell viability was measured by Sulforhodamine B (SRB) assay. The IC50 values and CI index were further determined by compusyn software. Every experiment was done in triplicate and repeated three times. […] To confirm And-1 was the primary target of ATR to promote platinum-resistance, the sensitivity of IGROV1 cells to cisplatin was examined using genetic analyses.
To determine whether And-1 inhibitors can overcome cisplatin resistance in OC cells, the synergy of And-1 inhibitors and cisplatin in IGROV1 CR cells was examined.

OB1OCc2cc(/C=C/c3ccc(Cl)c(Cl)c3)ccc21 [CH3]
synergy with cisplatin to inhibit cell proliferation (combination index): significant synergy
